Results: patent publication US9512176B2, “Age inhibitors” (Centre National de la Recherche Scientifique, priority 2005, dated 2016)
Non-standard residues stand in square brackets, D forms with d. Residues, ends and D or L forms follow the SMILES beside them. Dap = NC[C@H](N)C(=O)O

Tests used:
RNase A = RNase A modifications induced by methylglyoxal (HPLC); type: biochemical; details: RNase A 0.08 mM, methylglyoxal 32 mM, compound 38 mM, 21 hours at 37° C.
Description: FIGS. 11 to 13 present the results obtained by HPLC for three compounds according to the present invention, L-DAPA-L-Ile (example 18), L-DAPA-L-Val (example 23) and L-DAPA-L-Leu (example 1), on RNase A modifications induced by methylglyoxal. HPLC conditions are as follows: C-18, Symmetry 300 (4.6×250 mm) column, injection volume 100 μl of reaction mixture diluted to 1/10; flow 1 ml/min; temperature 40° C.; solvent A: H2O+0.1% TFA; solvent B: 60/40 CH3CN/H2O+0.1% TFA; linear gradient of 20% B to 80% B in 20 minutes; detection: UV at 215 nm: PDA (chromatograms extracted at 215 nm).

EA.hy 926 cell line = experiment: Growth of EA.hy 926 endothelial cells with MG scavengers and/or methylglyoxal (MTT); type: cell-based, human; details: for viability at 1000 µM: Homo sapiens, EA.hy 926, scavenger 1 mM + methylglyoxal 600 μM, relative to untreated control cells, MG alone 24, read-out: Cells + MG scavengers + Methylglyoxal (B); for viability at 1000 µM / Cells + MG scavengers (A): 48 hours, mean of 3 experiments; for Difference (B) − (A): Table 2, cells with scavenger + MG minus cells with scavenger alone; for Cells + MG scavengers (A): scavenger 1 mM, no methylglyoxal, number of cells relative to untreated control cells; for effect against suppression of cell growth by MG: scavenger + methylglyoxal
Description: The cells used for the test are from the EA.hy 926 cell line, which are endothelial cells obtained by the hybridization of human umbilical vein endothelial cells (HUVECs) with lung cancer cells (A549). The EA.hy 926 endothelial cells are incubated in Dulbecco's modified Eagle's Medium (DMEM) enriched with 10% fetal calf serum. The cells are incubated in 12-well plates. Each well initially contains 100,000 cells. Cell growth is achieved by incubating the cells in 2 ml of culture medium after adding or not adding the various potential inhibitors (1 mM) and/or methylglyoxal (600 μM) for 48 hours at 37° C. in a moist atmosphere with 5% CO2.
The number of cells is evaluated in the following way:
The cells are stained using the (4,5-dimethylthiazol-2-yl)-2,5-diphenyltetrazolium bromide (MTT) assay. MTT penetrates in the cell where it is converted into formazan. The quantity of formazan formed is proportional to the number of living cells.
The results are expressed as a relative percentage of the number of cells after treatment compared to the number of control cells without treatment [100*OD (treated cells)/OD (control cells)]. Detection is carried out by UV/visible spectrophotometry at 570 nm.
Principle: MTT (yellow) penetrates the cell and is converted into an insoluble blue compound, formazan, by cleavage of its tetrazolium rings by the mitochondrial dehydrogenase enzymes of living cells. Formazan is solubilized by isopropanol. The number of cells is proportional to the quantity of formazan formed and its absorbance.

ribonuclease A [1] = experiment: SDS PAGE electrophoresis of ribonuclease A incubated with methylglyoxal and inhibitor; type: biochemical
Description: (§1) Ribonuclease A and lysozyme (10 mg/ml) are incubated in the presence of methylglyoxal (10 mM) or in the presence of methylglyoxal and one of the inhibitors according to the present invention in an equimolar quantity at 37° C. After 48 hours of incubation, the proteins are analyzed by polyacrylamide gel electrophoresis (8%-16% SDS PAGE gel).
The AGE inhibitors according to the present invention, namely L-DAPA-L-Leu (example 1) and L-DAPA-L-Ile (example 18), or AG (10 mM) are incubated with MG and ribonuclease A for […] at 37° C.

lysozyme = experiment: SDS PAGE electrophoresis of lysozyme incubated with methylglyoxal and inhibitor; type: biochemical; details: lysozyme 10 mg/ml, methylglyoxal 10 mM, inhibitor equimolar, 37° C., 48 hours
Description: as §1

[2] = test system: seven strains of Salmonella (six mixed strains, strain TA98); experiment: Ames test with and without human liver S9 fractions; type: cell-based; design: key to Six mixed strains / Strain TA98: −: non-mutagenic; +: mutagenic; details: for Six mixed strains / Strain TA98: mixture with methylglyoxal, 10/1/0.1 μM
Description: An Ames test was performed with L-DAPA-L-Leu (example 1) and L-DAPA-L-Val (example 23) alone and in combination with methylglyoxal on human liver S9 fractions and on seven strains of Salmonella.
The concentrations used in the Ames test were as follows: • L-DAPA-L-Leu alone or L-DAPA-L-Val alone: 10 μM, 1 μM and 0.1 μM. • L-DAPA-L-Leu/methylglyoxal mixture or L-DAPA-L-Val/methylglyoxal mixture: 10 μM, 1 μM and 0.1 μM. • Methylglyoxal: 10 μM.

Human insulin = experiment: Modification of insulin by methylglyoxal (HPLC); type: biochemical; details: insulin 0.034 mM, methylglyoxal 3.4 mM, scavenger 4.08 mM, pH 7.45, 37° C.
Description: FIG. 1 presents the comparative effects of dicarbonyl scavengers in the form of dihydrochloride according to the present invention and the comparison with DAPA on the modification of insulin (Ins) by methylglyoxal (MG). The percentage of insulin is indicated following incubation with methylglyoxal in the presence or absence of dicarbonyl scavengers. Insulin (0.034 mM) is incubated in vitro in a 10 mM phosphate buffer, pH 7.45 (containing 0.1 M NaCl) with methylglyoxal (3.4 mM) in the presence of dicarbonyl scavengers (4.08 mM) for 21 hours at 37° C. Insulin concentration is measured by HPLC (same conditions as in FIG. 3).
FIGS. 3 to 8 present the results obtained by HPLC for two compounds according to the present invention, L-DAPA-L-Leu (example 1) and L-DAPA-L-Val (example 23), on insulin modifications induced by methylglyoxal. It can be observed that these modifications are prevented. The HPLC conditions are as follows: C-18, Symmetry 300 (4.6×250 mm) column, injection volume 100 μl of reaction mixture; flow 1 ml/min; temperature 40° C.; solvent A: H2O+0.1% TFA; solvent B: 60/40 CH3CN/H2O+0.1% TFA; linear gradient of 50% B to 55% B in 15 minutes; detection: UV at 215 nm: PDA (chromatograms extracted at 220 nm).
Human insulin (Ins) is incubated with methylglyoxal (MG) under physiological conditions. After 24 hours, the insulin is completely modified, as illustrated in FIG. 1 (Ins+MG).
On the other hand, insulin is incubated with methylglyoxal in the presence of an equimolar quantity of the AGE inhibitors according to the present invention under physiological conditions.

somatostatin-14 = experiment: Somatostatin-14 modifications induced by methylglyoxal (HPLC); type: biochemical; details: somatostatin-14 0.03 mm, methylglyoxal 3.6 mM, compound 4.3 mM, 24 hours at 37° C.
Description: FIGS. 9 and 10 present the results obtained by HPLC for two compounds according to the present invention, L-DAPA-L-Leu (example 1) and L-DAPA-L-Val (example 23), on somatostatin-14 modifications induced by methylglyoxal. HPLC conditions are as follows: C-18, Symmetry 300 (4.6×250 mm) column, injection volume 100 μl of reaction mixture; flow 1 ml/min; solvent A: H2O+0.1% TFA; solvent B: 80/20 CH3CN/H2O+0.1% TFA; linear gradient: from 20% B to 60% B in 15 minutes and isocratic from 60% B for 10 minutes; ambient temperature; detection: PDA (chromatograms extracted at 215 nm).
In these figures, (a) represents the results of somatostatin-14 alone; (b) represents the results of somatostatin-14+methylglyoxal; (c) represents the results of somatostatin-14+methylglyoxal+L-DAPA-L-Val (example 23) and (d) represents the results of somatostatin-14+methylglyoxal+L-DAPA-L-Leu (example 1).

ribonuclease A [3] = experiment: Enzymatic activity of ribonuclease A after treatment with methylglyoxal and inhibitors (methylene blue RNA staining); type: biochemical; details: ribonuclease A treated with methylglyoxal (MG) + inhibitor in equimolar quantity, 37° C.; control RNase 100, RNase + methylglyoxal 10.11%
Description: as §1
The enzymatic activity of ribonuclease A after treatment with methylglyoxal and the various inhibitors according to the present invention is measured using the methylene blue RNA staining technique of Greiner-Stöffele et al. (Anal. Biochem. (1996) 240, 24).

[4] = Battah et al. 2002; cited from earlier work
[5] = Mutagenicity of DAPA (statement, no method given); details: no test described

CC(C)[C@H](NC(=O)[C@@H](N)CN)C(=O)O [example 23, L-DAPA-L-Val.2HCl] (H-[Dap]-Val-OH)
RNase A modifications induced by methylglyoxal (RNase A): prevent the modifications to RNase A | cell survival when incubated with MG (EA.hy 926 cell line): 93% | viability at 1000 µM (EA.hy 926 cell line): 93% | Difference (B) − (A) (EA.hy 926 cell line): −1 | Cells + MG scavengers (A) (EA.hy 926 cell line): 94% | effect against suppression of cell growth by MG (EA.hy 926 cell line): same trend | difference between number of cells growing with compound and with MG and compound (EA.hy 926 cell line; values in brackets): −3 | protection from structural modifications (dimer form) caused by methylglyoxal (ribonuclease A [1]; ribonuclease A 10 mg/ml, methylglyoxal 10 mM, inhibitor equimolar, 37° C., 48 hours): provides protection | protection from structural modifications (dimer form) caused by methylglyoxal (lysozyme): provides protection | Six mixed strains ([2]; Human S9: No): − | Strain TA98 ([2]; Human S9: No): − | Six mixed strains ([2]; Human S9: Yes (metabolites)): − | Strain TA98 ([2]; Human S9: Yes (metabolites)): − | mutagenicity ([2]; alone or in combination with methylglyoxal, TA98, mixed strains, human liver S9 fractions): neither substance (L-DAPA-L-Leu or L-DAPA-L-Val) was mutagenic | modification of insulin by methylglyoxal (Human insulin): prevented | somatostatin-14 modifications induced by methylglyoxal (somatostatin-14): prevent the modifications induced by methylglyoxal | Enzymatic activity (%) (ribonuclease A [3]): 90.77%

N=C(N)NN [Aminoguanidine, aminoguanidine, reference compound]
viability at 1000 µM (EA.hy 926 cell line): 92% | Difference (B) − (A) (EA.hy 926 cell line): −5 | Cells + MG scavengers (A) (EA.hy 926 cell line): 97% | effect against suppression of cell growth by MG (EA.hy 926 cell line): suppresses this process in a spectacular manner | protecting effect against structural modifications of ribonuclease A induced by MG, compared with the inhibitors of the invention (ribonuclease A [1]; 10 mM, 40 hours at 37° C.): much less effective | better scavenger of methylglyoxal compared with metformin (factor) [4]: 450 | Enzymatic activity (%) (ribonuclease A [3]): 70.52%

NCC(N)C(=O)O [D-DAPA, 2,3-diaminopropionic acid, reference compound]
mutagenicity [5]: appears to be mutagenic | cell survival when incubated with MG (EA.hy 926 cell line): 68% | viability at 1000 µM (EA.hy 926 cell line): 68% | Difference (B) − (A) (EA.hy 926 cell line): −15 | toxicity with respect to EA cells (EA.hy 926 cell line; compound alone, 1 mM): cytotoxicity is higher | Cells + MG scavengers (A) (EA.hy 926 cell line): 83% | modification of insulin by methylglyoxal (Human insulin): prevents the modification of insulin by MG | Enzymatic activity (%) (ribonuclease A [3]): 20.32%
